Reference: ChEMBL document CHEMBL2424615, “Design, synthesis, and characterization of novel tetrahydropyran-based bacterial topoisomerase inhibitors with potent anti-gram-positive activity” (J Med Chem, 2013)

Tests used:
[1] = system: Escherichia coli; assay: Antibacterial activity against wild type Escherichia coli ATCC 25922 assessed as growth inhibition by broth microdilution method; assay type: functional
[2] = system: Staphylococcus aureus; assay: Antibacterial activity against wild type Staphylococcus aureus ATCC 29213 assessed as growth inhibition by broth microdilution method; assay type: functional
[3] = system: Streptococcus pneumoniae; assay: Antibacterial activity against wild type Streptococcus pneumoniae ATCC 49619 assessed as growth inhibition by broth microdilution method; assay type: functional
[4] = molecular target: DNA gyrase subunit A (Staphylococcus aureus, UniProt P20831, D83N); assay: Inhibition of NXL-101-resistant Staphylococcus aureus DNA gyrase D83N mutant assessed as pBR322 supercoiling after 1 hr
[5] = system: Enterococcus faecium; assay: Antibacterial activity against vancomycin-resistant Enterococcus faecium A-949 assessed as growth inhibition by broth microdilution method; assay type: functional
[6] = molecular target: Topoisomerase IV (Staphylococcus aureus, UniProt P0C1S7+P0C1U9); assay: Inhibition of wild type Staphylococcus aureus ATCC 29213 topoisomerase-4 subunit 2GrlA/2GrlB assessed as pBR322 relaxation after 1 hr; assay type: protein-complex assay
[7] = system: Staphylococcus aureus; assay: Antibacterial activity against NXL-101-resistant Staphylococcus aureus harboring DNA gyrase D83N mutant assessed as growth inhibition by broth microdilution method; assay type: functional
[8] = system: Staphylococcus aureus; assay: Antibacterial activity against methicillin and quinolone-resistant Staphylococcus aureus A-798 assessed as growth inhibition by broth microdilution method; assay type: functional
[9] = molecular target: DNA gyrase subunit A (Staphylococcus aureus, UniProt P20831, S84L); assay: Inhibition of quinolone-resistant Staphylococcus aureus A-798 DNA gyrase S84L mutant assessed as pBR322 supercoiling after 1 hr
[10] = system: Pseudomonas aeruginosa; assay: Antibacterial activity against wild type Pseudomonas aeruginosa ATCC 27853 assessed as growth inhibition by broth microdilution method; assay type: functional
[11] = Inhibition of wild type Escherichia coli ATCC 25922 DNA topoisomerase-4 subunit 2ParC/2ParE assessed as pBR322 relaxation after 1 hr
[12] = molecular target: DNA gyrase (Staphylococcus aureus, UniProt P0A0K8+P20831); assay: Inhibition of wild type Staphylococcus aureus DNA gyrase subunit 2GyrA/2GyrB assessed as pBR322 supercoiling after 1 hr; assay type: protein-complex assay
[13] = Inhibition of wild type Escherichia coli ATCC 25922 DNA gyrase subunit 2GyrA/2GyrB assessed as pBR322 supercoiling after 1 hr
[14] = system: Staphylococcus aureus; assay: Antibacterial activity against NXL-101-resistant Staphylococcus aureus A-234 harboring DNA gyrase subunit A D83N mutant assessed as growth inhibition by broth microdilution method; assay type: functional
[15] = molecular target: hERG (KCNH2) (Homo sapiens, UniProt Q12809); assay: Inhibition of human ERG expressed in CHO cells at 10 uM after 3 mins by patch clamp assay relative to control; assay type: cell-based; settings: CHO cells that express human ERG
Sequence of hERG (KCNH2) (Q12809 whole entry): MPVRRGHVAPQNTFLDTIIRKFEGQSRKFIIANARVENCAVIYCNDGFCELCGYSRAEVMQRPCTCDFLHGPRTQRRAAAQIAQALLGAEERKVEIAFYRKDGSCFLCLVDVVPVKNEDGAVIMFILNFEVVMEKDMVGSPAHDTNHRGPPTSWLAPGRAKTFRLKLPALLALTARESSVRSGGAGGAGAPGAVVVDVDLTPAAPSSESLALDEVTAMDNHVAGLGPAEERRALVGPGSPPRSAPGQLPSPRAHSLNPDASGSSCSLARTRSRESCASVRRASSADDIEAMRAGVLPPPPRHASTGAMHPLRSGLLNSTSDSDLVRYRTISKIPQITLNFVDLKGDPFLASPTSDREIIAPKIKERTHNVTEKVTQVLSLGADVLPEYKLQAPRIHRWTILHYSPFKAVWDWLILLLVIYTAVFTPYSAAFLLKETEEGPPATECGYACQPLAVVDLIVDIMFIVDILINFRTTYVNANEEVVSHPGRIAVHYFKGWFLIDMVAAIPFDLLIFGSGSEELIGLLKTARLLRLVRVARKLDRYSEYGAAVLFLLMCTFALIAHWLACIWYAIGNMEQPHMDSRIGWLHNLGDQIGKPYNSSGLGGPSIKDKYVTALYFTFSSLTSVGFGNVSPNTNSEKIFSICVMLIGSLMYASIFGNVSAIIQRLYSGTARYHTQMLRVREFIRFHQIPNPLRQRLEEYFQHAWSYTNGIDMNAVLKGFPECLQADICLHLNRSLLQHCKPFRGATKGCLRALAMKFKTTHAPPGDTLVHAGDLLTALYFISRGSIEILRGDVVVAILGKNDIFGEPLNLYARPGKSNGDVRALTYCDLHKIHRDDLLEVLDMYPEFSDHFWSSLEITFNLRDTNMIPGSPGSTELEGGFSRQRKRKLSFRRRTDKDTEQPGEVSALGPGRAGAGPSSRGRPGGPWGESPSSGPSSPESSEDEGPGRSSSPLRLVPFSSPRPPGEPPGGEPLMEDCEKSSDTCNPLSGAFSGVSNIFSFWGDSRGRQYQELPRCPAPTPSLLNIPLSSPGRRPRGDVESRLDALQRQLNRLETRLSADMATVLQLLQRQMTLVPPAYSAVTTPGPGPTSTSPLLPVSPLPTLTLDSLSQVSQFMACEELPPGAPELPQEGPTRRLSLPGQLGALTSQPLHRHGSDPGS

| SMILES | MIC [1] [µg/mL] | MIC [2] [µg/mL] | MIC [3] [µg/mL] | IC50 [4] [nM] | MIC [5] [µg/mL] | IC50 [6] [nM] | MIC [7] [µg/mL] | MIC [8] [µg/mL] | IC50 [9] [nM] | MIC [10] [µg/mL] | IC50 [11] [nM] | IC50 [12] [nM] | IC50 [13] [nM] | MIC [14] [µg/mL] | inhibition at 0.05 h, 10 µM [15] [%] |
| --- | --- | --- | --- | --- | --- | --- | --- | --- | --- | --- | --- | --- | --- | --- | --- |
| COc1ccc2ncc(F)c([C@@H](O)CC[C@@H]3CCN(CCSc4cccs4)C[C@@H]3C(=O)O)c2c1 | > 8 | 0.125 | 1 | 128000 | 1 | 128000 | > 8 | 0.25 | 125 | > 8 | 2000 | 125 | 32000 | – | – |
| N#Cc1ccc2ccc(=O)n(CCN3CC[C@H](NCc4cc5c(cn4)OCCO5)[C@H](F)C3)c2c1 | 8 | 0.015 | 0.25 | 32000 | 0.5 | 8000 | 1 | 0.015 | 30 | > 8 | 125 | 30 | 8000 | – | – |
| COc1ccc2ncc(F)c([C@@H](O)[C@H](O)[C@@H]3CC[C@@H](NCc4ccc5c(n4)NC(=O)CS5)CO3)c2c1 | 4 | 0.25 | 0.25 | – | – | 8000 | – | – | – | > 8 | 125 | 125 | 2000 | > 8 | 15 |
| COc1cc(F)c2nccc([C@@H](O)[C@H](O)[C@@H]3CC[C@@H](NCc4ccc5c(n4)NC(=O)CS5)CO3)c2c1 | 4 | 0.03 | 0.25 | – | – | 8000 | – | – | – | > 8 | 125 | 125 | 2000 | 4 | 20 |
| COc1ccc2nccc([C@@H](O)[C@H](O)[C@@H]3CC[C@@H](NCc4ccc5c(n4)NC(=O)CS5)CO3)c2c1 | 4 | 0.25 | 0.25 | – | – | 8000 | – | – | – | > 8 | 125 | 250 | 2000 | > 8 | 24 |
| COc1cnc2ccc(F)c([C@@H](O)[C@H](O)[C@@H]3CC[C@@H](NCc4cc5c(cn4)OCCO5)CO3)c2n1 | 8 | ≤ 0.015 | 0.125 | – | – | 8000 | – | – | – | > 8 | 500 | 125 | 8000 | 8 | 11 |
| COc1cnc2ccc(F)c([C@@H](O)[C@H](O)[C@@H]3CC[C@@H](NCc4cc5c(nn4)OCCS5)CO3)c2n1 | > 8 | ≤ 0.015 | 0.125 | – | – | > 8000 | – | – | – | > 8 | 2000 | 125 | 8000 | 8 | 0 |
| COc1ccc2ncc(F)c([C@@H](O)[C@H](O)[C@@H]3CC[C@@H](NCc4cc5c(cn4)OCCO5)CO3)c2n1 | > 8 | 0.03 | 0.03 | – | – | 8000 | – | – | – | > 8 | 125 | 30 | 8000 | 2 | 10 |
| COc1ccc2ncc(F)c([C@@H](O)[C@H](O)[C@@H]3CC[C@@H](NCc4cc5c(nn4)OCCS5)CO3)c2n1 | > 8 | ≤ 0.015 | 0.06 | – | – | 8000 | – | – | – | > 8 | 500 | 125 | 8000 | 8 | 3 |
| COc1ccc2ncc(F)c([C@@H](O)[C@H](O)[C@@H]3CC[C@@H](NCc4cc5c(nn4)OCCO5)CO3)c2n1 | > 8 | 0.125 | 0.5 | – | – | > 8000 | – | – | – | > 8 | 2000 | 125 | > 8000 | > 8 | 7 |
| COc1ccc2nccc([C@@H](O)[C@H](O)[C@@H]3CC[C@@H](NCc4cc5c(cn4)OCCO5)CO3)c2n1 | 8 | 0.06 | 0.5 | – | – | 8000 | – | – | – | > 8 | 125 | 30 | 8000 | 4 | 27 |
| COc1cnc2cccc([C@@H](O)[C@H](O)[C@@H]3CC[C@@H](NCc4ccc5c(n4)NC(=O)CS5)CO3)c2c1 | 8 | 0.25 | 0.25 | – | – | 500 | – | – | – | > 8 | 125 | 125 | 2000 | > 8 | 17 |
| COc1ccc2nccc(NC(=O)[C@H]3CC[C@H](NCc4ccc5c(n4)NC(=O)CS5)CC3)c2n1 | 0.25 | 0.015 | 0.063 | 8000 | 0.063 | 125 | 0.25 | 0.015 | 8 | 8 | 8 | 30 | – | – | – |
| O=c1ccc2ccc(F)c3c2n1CC3CN1CCC(NCc2cc3c(cn2)OCCO3)CC1 (stereo not drawn) | 1 | 0.015 | 0.015 | 2000 | 0.06 | 2000 | 1 | 0.015 | 30 | > 8 | 500 | 125 | – | – | – |
| COc1ccc2nccc(C(O)C[C@@H]3CC[C@@H](NCc4ccc5c(n4)NC(=O)CS5)CO3)c2n1 (mixture of isomers) | 1 | 0.03 | 0.03 | – | – | > 8000 | – | – | – | > 8 | < 30 | < 30 | 500 | 0.5 | 99 |
| O=C(O)c1cn(C2CC2)c2cc(N3CCNCC3)c(F)cc2c1=O [CIPROFLOXACIN] | 0.016 | 0.25 | 1 | – | > 8 | – | 0.25 | > 8 | – | 0.25 | – | – | 500 | – | – |
